Among the data in patent EP0428132A1, “Pradimicin derivatives” (Bristol-Myers Squibb Company, priority 1989, dated 1991) are MIC values, retold here.

Where a name gives a salt, the structure may show the parent alone.

One assay deals with Candida albicans A25578. The experiment in a line: In vitro antifungal activity, serial agar dilution method (Table 1a). Format: cell-based. As to conditions: A25578, YM agar (pH 7.0, Difco), 30°C for 2 days (yeast) or 4 days (filamentous fungi), read-out: MICs, Candida albicans A25578. The procedure: (§1) The inoculum size was adjusted to 10⁶ cells/ml, and a volume of approximately 0.003 ml of fungal suspension was applied to the surface of the antibiotic containing agar plates with a multiinoculator. After incubation, the lowest concentration of antibiotic causing virtually complete inhibition of fungal growth was determined as the minimum inhibitory concentration (MIC).
On the technique in general: Agar dilution tests growth on a series of plates holding different concentrations.

The next assay has as its system Candida albicans A9540. The description is as above. In kind it is cell-based. As to conditions: A9540, YM agar (pH 7.0, Difco), 30°C for 2 days (yeast) or 4 days (filamentous fungi), read-out: MICs, Candida albicans A9540. The procedure:
as §1

The subject of assay [1] is Candida paratropicalis A25825. The description is as above. As to conditions: YM agar (pH 7.0, Difco); 30°C for 2 days (yeast) or 4 days (filamentous fungi); read-out: MICs, Candida paratropicalis A25825. Format: cell-based. The procedure: as §1
Assay [2] has as its system Candida pseudotropicalis A25802. The description is as above. Format: cell-based. Particulars: Kluyveromyces marxianus, YM agar (pH 7.0, Difco), 30°C for 2 days (yeast) or 4 days (filamentous fungi), read-out: MICs, Candida pseudotropicalis A25802. As for the experimental part: as §1
For assay [3], the system named is Candida tropicalis A25809. The assay is described as above. Format: cell-based. As to conditions: YM agar (pH 7.0, Difco), 30°C for 2 days (yeast) or 4 days (filamentous fungi), read-out: MICs, Candida tropicalis A25809. As for the experimental part:
as §1

The subject of assay [4] is Candida tropicalis A25812. The description is as above. In kind it is cell-based. As to conditions: A25812, YM agar (pH 7.0, Difco), 30°C for 2 days (yeast) or 4 days (filamentous fungi), read-out: MICs, Candida tropicalis A25812. The procedure:
as §1

Assay [5] has as its system Cryptococcus neoformans A15053. The description is as above. In kind it is cell-based. Particulars: A15053, YM agar (pH 7.0, Difco), 30°C for 2 days (yeast) or 4 days (filamentous fungi), read-out: MICs, Cryptococcus neoformans A15053. As for the experimental part: as §1
Assay [6] relates to Saccharomyces cerevisiae A25803. Described as above. Format: cell-based. As to conditions: YM agar (pH 7.0, Difco), 30°C for 2 days (yeast) or 4 days (filamentous fungi), read-out: MICs, Saccharomyces cerevisiae A25803. The procedure: as §1
The next assay deals with M. gypseum A22810. The experiment in a line: In vitro antifungal activity, serial agar dilution method (Table 1a, footnote strain 1). In kind it is cell-based, Microsporum gypseum. As to conditions: Nannizzia gypsea, strain per footnote **1, YM agar (pH 7.0, Difco), 30°C for 2 days (yeast) or 4 days (filamentous fungi), read-out: MICs, M. gypseum A22810. As for the experimental part: as §1

Another assay relates to T. rubrum A24195. Kind of assay: In vitro antifungal activity, serial agar dilution method (Table 1a, footnote strain 2). Particulars: Trichophyton rubrum, A24195, pH 7, read-out: MICs, T. rubrum A24195. Format: cell-based. As for the experimental part: as §1
In another assay the test system is T. mentagrophytes A22838. The experiment in a line: In vitro antifungal activity, serial agar dilution method (Table 1a, footnote strain 3). In kind it is cell-based. Particulars: Trichophyton mentagrophytes, strain per footnote **3, YM agar (pH 7.0, Difco), 30°C for 2 days (yeast) or 4 days (filamentous fungi), read-out: MICs, T. mentagrophytes A22838. As for the experimental part:
as §1

Another assay relates to M. canis A22494. Kind of assay: In vitro antifungal activity, serial agar dilution method (Table 1a, footnote strain 6). Format: cell-based. Particulars: Microsporum canis, A22494, pH 7, read-out: MICs, M. canis A22494. As for the experimental part: as §1

As for `COc1cc(O)c2c(c1)C(=O)c1c(cc3c(c1O)-c1c(cc(C)c(C(=O)N[C@H](C)C(=O)O)c1O)[C@H](O[C@@H]1O[C@H](C)[C@H](N(C)C(=O)CN)[C@H](O)[C@H]1O)[C@H]3O)C2=O` [Ex. 14, N-(glycyl) pradimicin B formate salt], the MIC in the assay on Candida albicans A25578 was found to be 3.2 µg/mL; in the assay with Candida albicans A9540, 3.2 µg/mL; in assay [1] it was 3.2 µg/mL; in [2], 1.6 µg/mL; in assay [3], 3.2 µg/mL; in assay [4], 3.2 µg/mL. The MIC stood at 1.6 µg/mL in [5]; 1.6 µg/mL in assay [6]; 3.2 µg/mL with M. gypseum A22810; 1.6 µg/mL in the assay on T. rubrum A24195; 1.6 µg/mL with T. mentagrophytes A22838.

In the case of `COc1cc(O)c2c(c1)C(=O)c1c(cc3c(c1O)-c1c(cc(C)c(C(=O)N[C@H](C)C(=O)O)c1O)[C@H](O[C@@H]1O[C@H](C)[C@H](N(C)C(=O)[C@@H](N)CCC(=O)O)[C@H](O)[C@H]1O)[C@H]3O)C2=O` [Ex. 20, N-(L-glutamyl) pradimicin B formate salt], the MIC in the assay with Candida albicans A25578 is 12.5 µg/mL; in the assay on Candida albicans A9540 it was 25 µg/mL; in assay [1], 25 µg/mL; in assay [2], 6.3 µg/mL; in assay [4], 25 µg/mL; in assay [5] it was 50 µg/mL. The MIC in assay [6] came out at 6.3 µg/mL; with M. gypseum A22810 it was 12.5 µg/mL; in the assay with T. rubrum A24195, 12.5 µg/mL; in the assay with T. mentagrophytes A22838, 12.5 µg/mL; with M. canis A22494, 12.5 µg/mL.
